How the values were obtained:
[1] = biological target: Prostaglandin G/H synthase 1 (Homo sapiens, UniProt P23219); assay: biochemical; format: tissue-based, Platelet; settings: platelet;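 further: inhibition of COX-1 enzyme activity, with arachidonic acid supplied as substrate; in other assays of this panel Not Active means under 50% inhibition at 10 µM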
[2] = biological target: D(1A) dopamine receptor (Homo sapiens, UniProt P21728); assay: DRUGMATRIX: Dopamine D1 radioligand binding (ligand: [3H] SCH-23390); format: cell membranes, CHO, Membrane; settings: cho; Not Active = under 50% inhibition at 10 µM
D(1A) dopamine receptor, sequence (P21728 whole entry): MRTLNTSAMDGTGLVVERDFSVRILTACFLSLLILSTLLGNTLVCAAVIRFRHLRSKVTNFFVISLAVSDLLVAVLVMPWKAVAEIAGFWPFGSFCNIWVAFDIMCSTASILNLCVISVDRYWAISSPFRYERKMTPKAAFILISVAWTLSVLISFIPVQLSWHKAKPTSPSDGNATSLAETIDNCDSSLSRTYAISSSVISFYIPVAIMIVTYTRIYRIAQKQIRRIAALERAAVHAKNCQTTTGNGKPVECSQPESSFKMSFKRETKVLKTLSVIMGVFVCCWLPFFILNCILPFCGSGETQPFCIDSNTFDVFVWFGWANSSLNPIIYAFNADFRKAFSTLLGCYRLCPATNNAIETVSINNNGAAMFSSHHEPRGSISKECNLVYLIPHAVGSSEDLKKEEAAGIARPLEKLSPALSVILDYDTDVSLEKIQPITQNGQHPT

[3] = biological target: T1, D(4) dopamine receptor (Homo sapiens, UniProt P21917); assay: DRUGMATRIX: Dopamine D4.2 radioligand binding (ligand: [3H] Spiperone); format: cell membranes, CHO-K1, Membrane; settings: cho-k1, Not Active = under 50% inhibition at 10 µM
T1 sequence (P21917 whole entry): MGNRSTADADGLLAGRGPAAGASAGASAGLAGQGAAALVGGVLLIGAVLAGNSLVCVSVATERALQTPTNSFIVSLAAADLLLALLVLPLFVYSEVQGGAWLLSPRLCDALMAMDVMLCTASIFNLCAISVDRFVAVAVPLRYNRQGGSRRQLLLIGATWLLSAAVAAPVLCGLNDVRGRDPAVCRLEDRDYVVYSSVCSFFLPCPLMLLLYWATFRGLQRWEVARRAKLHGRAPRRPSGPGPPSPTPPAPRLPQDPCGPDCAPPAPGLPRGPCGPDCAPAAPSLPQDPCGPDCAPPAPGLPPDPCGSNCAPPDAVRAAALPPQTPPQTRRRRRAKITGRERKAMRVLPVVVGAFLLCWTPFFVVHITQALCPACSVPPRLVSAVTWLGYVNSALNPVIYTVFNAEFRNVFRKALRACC

[4] = biological target: Insulin receptor (Rattus norvegicus, UniProt P15127); format: cell membranes, Wistar, Liver, Membrane; further: in other assays of this panel Not Active means under 50% inhibition at 10 µM
Insulin receptor, sequence (P15127 27-759 limits assumed): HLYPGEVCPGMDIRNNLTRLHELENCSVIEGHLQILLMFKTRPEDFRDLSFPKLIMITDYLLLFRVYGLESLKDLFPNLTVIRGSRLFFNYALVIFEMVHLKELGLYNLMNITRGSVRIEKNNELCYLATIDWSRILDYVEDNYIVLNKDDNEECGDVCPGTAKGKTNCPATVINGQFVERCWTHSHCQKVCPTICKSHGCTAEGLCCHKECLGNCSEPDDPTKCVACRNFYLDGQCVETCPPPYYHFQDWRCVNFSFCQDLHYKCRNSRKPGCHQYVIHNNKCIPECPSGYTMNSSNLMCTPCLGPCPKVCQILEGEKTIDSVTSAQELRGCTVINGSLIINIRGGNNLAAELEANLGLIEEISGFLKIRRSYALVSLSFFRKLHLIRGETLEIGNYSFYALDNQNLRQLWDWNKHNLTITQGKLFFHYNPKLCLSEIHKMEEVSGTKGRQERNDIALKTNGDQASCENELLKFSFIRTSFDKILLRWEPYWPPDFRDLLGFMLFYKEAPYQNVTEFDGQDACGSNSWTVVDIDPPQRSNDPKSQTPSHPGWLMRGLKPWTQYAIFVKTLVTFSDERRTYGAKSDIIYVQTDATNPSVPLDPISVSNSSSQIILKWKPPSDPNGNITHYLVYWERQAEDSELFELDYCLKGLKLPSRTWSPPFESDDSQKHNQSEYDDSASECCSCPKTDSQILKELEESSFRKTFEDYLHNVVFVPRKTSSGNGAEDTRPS
Insulin receptor, sequence (P15127 764-1383 limits assumed): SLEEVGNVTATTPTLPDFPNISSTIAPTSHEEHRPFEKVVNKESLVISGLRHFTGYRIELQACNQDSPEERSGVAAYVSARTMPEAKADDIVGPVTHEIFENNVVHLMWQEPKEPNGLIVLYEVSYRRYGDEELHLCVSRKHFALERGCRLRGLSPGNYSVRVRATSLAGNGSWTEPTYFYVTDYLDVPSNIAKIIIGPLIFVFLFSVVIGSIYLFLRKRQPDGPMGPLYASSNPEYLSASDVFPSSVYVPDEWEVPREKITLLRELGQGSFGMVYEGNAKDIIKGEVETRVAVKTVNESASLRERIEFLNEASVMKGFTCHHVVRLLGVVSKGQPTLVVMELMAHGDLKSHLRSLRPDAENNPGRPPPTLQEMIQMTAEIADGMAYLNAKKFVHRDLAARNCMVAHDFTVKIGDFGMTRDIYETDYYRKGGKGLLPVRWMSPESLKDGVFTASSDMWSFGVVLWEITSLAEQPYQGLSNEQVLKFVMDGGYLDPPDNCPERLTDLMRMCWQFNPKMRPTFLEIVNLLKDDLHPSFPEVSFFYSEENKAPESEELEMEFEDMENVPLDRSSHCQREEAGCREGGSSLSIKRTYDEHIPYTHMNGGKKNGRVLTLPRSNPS

[5] = DRUGMATRIX: Interleukin IL-1 radioligand binding (ligand: [125I] interleukin 1beta); format: cell membranes, Membrane; settings: nih3t3; Not Active = under 50% inhibition at 10 µM
[6] = biological target: Delta-type opioid receptor (Homo sapiens, UniProt P41143); format: cell membranes, Membrane; settings: hek293; further: in other assays of this panel Not Active means under 50% inhibition at 10 µM
Delta-type opioid receptor, sequence (P41143 whole entry): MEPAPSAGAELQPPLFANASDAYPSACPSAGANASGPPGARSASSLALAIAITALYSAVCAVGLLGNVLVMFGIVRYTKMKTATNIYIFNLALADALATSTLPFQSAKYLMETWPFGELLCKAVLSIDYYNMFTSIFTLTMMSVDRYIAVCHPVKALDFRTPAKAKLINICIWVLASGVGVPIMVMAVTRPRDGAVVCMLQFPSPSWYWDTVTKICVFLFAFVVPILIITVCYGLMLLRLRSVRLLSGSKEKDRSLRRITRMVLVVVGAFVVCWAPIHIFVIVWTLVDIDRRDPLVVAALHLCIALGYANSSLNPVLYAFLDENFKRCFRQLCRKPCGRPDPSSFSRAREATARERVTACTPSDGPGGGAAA

[7] = DRUGMATRIX: Purinergic P2X radioligand binding (ligand: [3H] alpha, beta-Methylene-ATP); format: cell membranes, Oryctolagus cuniculus, New Zealand albino, Urinary bladder, Membrane; settings: Not Active = under 50% inhibition at 10 µM
[8] = biological target: Acetylcholinesterase (Homo sapiens, UniProt P22303); assay: DRUGMATRIX: Acetylcholinesterase enzyme inhibition (substrate: acetylthiocholine); format: cell-based, HEK293; settings: hek293; Not Active = under 50% inhibition at 10 µM
Acetylcholinesterase, sequence (P22303 whole entry): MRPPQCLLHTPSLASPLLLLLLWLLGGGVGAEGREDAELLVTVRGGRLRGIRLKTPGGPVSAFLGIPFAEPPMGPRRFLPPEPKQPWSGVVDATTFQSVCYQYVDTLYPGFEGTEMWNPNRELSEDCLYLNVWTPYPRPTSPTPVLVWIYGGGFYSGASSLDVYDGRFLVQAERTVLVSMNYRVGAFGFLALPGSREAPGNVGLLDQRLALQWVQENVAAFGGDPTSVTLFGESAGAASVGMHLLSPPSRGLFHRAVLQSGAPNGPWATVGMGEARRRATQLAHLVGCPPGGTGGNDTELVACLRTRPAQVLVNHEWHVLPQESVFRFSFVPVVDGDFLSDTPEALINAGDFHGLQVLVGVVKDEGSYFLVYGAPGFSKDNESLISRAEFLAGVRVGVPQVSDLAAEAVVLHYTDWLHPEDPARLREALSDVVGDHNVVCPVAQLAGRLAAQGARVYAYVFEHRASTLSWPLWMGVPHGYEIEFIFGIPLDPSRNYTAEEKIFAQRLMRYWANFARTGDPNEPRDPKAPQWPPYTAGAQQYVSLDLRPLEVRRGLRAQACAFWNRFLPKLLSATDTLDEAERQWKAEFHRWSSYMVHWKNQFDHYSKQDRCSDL

Prostaglandin G/H synthase 1, sequence (P23219 whole entry): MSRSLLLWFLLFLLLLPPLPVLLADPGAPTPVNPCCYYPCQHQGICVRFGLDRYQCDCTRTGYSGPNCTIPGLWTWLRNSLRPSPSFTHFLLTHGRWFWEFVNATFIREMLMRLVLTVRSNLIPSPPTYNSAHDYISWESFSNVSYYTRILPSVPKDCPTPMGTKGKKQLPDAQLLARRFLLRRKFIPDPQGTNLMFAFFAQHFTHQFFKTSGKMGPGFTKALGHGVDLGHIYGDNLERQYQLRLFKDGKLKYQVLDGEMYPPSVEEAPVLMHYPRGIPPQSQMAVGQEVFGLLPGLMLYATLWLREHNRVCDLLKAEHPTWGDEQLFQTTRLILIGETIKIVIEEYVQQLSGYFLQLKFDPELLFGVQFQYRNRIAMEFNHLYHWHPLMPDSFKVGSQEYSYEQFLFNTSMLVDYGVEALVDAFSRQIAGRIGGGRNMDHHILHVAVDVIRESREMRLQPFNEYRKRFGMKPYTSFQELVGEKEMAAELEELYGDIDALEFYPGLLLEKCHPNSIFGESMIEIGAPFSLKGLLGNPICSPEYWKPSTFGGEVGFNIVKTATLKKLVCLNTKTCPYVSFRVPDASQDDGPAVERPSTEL

| Molecule | IC50 [1] | IC50 [2] | IC50 [3] | IC50 [4] | IC50 [5] | Ki [5] | IC50 [6] | IC50 [7] | Ki [7] | IC50 [8] | Ki [1] | Ki [2] | Ki ([3]; read-out: Ki) [nM] | Ki [4] | Ki [6] | Ki [8] | Ki [3] |
| --- | --- | --- | --- | --- | --- | --- | --- | --- | --- | --- | --- | --- | --- | --- | --- | --- | --- |
| Oc1cccc(O)c1O [PYROGALLOL] | Not Active | Not Active | Not Active | Not Active | Not Active | Not Active | Not Active | Not Active | Not Active | Not Active | – | – | – | – | – | – | – |
| AURANOFIN | Not Active | Not Active | – | Not Active | Not Active | Not Active | Not Active | Not Active | Not Active | Not Active | Not Active | Not Active | 394 | Not Active | Not Active | Not Active | – |
| GADOPENTETATE DIMEGLUMINE | Not Active | Not Active | Not Active | Not Active | Not Active | Not Active | Not Active | Not Active | Not Active | Not Active | Not Active | Not Active | – | Not Active | Not Active | Not Active | Not Active |
| GENTAMICIN | Not Active | Not Active | Not Active | Not Active | Not Active | Not Active | Not Active | Not Active | Not Active | Not Active | Not Active | Not Active | – | Not Active | Not Active | Not Active | Not Active |
| GRAMICIDIN | Not Active | Not Active | Not Active | Not Active | Not Active | Not Active | Not Active | Not Active | Not Active | Not Active | Not Active | Not Active | – | Not Active | Not Active | Not Active | Not Active |
| NYSTATIN | Not Active | Not Active | Not Active | Not Active | Not Active | Not Active | Not Active | Not Active | Not Active | Not Active | Not Active | Not Active | – | Not Active | Not Active | Not Active | Not Active |
